For one assay, the target named is T1, Δ^1–24-C65A + H111A (Mus musculus, UniProt O09114, C65A/H111A).
T1 sequence (O09114 1-189 C65A/H111A): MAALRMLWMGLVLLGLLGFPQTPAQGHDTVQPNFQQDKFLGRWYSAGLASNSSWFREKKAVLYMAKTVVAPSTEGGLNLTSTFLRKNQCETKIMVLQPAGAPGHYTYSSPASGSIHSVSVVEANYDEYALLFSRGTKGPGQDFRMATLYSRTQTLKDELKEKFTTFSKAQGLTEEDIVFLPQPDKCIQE
Nature of the assay: biochemical.

Assay [1] has as its target T2, mouse Δ1–24-L-PGDS (lipocalin type prostaglandin D synthase) (Mus musculus, UniProt O09114, T67A).
T2 sequence (O09114 25-189 T67A): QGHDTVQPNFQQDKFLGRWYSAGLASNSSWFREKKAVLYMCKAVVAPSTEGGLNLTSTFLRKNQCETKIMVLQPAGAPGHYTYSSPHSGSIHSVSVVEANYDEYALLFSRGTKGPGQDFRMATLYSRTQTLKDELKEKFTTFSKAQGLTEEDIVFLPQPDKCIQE
The assay can be described thus: surface plasmon resonance. The assay is classed as binding. For orientation: Surface plasmon resonance follows binding to a sensor surface in real time, without labels.

The target of assay [2] is T3, mouse Δ1–24-L-PGDS (lipocalin type prostaglandin D synthase) (Mus musculus, UniProt O09114).
T3 sequence (O09114 25-189): T2 sequence (O09114 25-189 T67A) with A43T
Nature of the assay: PGDS assay, [[…]-14C]PGH2 to [[…]-14C]PGD2 by TLC. The assay is classed as biochemical.

Assay [3] addresses T4, Δ^1–24-L-PGDS + S45A/T67A (Mus musculus, UniProt O09114, S45A/T67A).
T4 sequence (O09114 1-189 S45A/T67A): T1 sequence (O09114 1-189 C65A/H111A) with S45A, A65C, T67A, A111H
Nature of the assay: biochemical.

Assay [4] deals with T5, mouse Δ1–24-L-PGDS (lipocalin type prostaglandin D synthase) (Mus musculus, UniProt O09114, H111A).
T5 sequence (O09114 25-189 H111A): T2 sequence (O09114 25-189 T67A) with A43T, H87A
The assay can be described thus: surface plasmon resonance. The assay is classed as binding.

Assay [5] concerns the target T6, mouse Δ1–24-L-PGDS (lipocalin type prostaglandin D synthase) (Mus musculus, UniProt O09114, S45A/S81A/T67A).
T6 sequence (O09114 25-189 S45A/T67A/S81A): T2 sequence (O09114 25-189 T67A) with S21A, S57A
Nature of the assay: surface plasmon resonance. The assay is classed as binding.

The target of the next assay is T7, Δ^1–24-C65A + W54A (Mus musculus, UniProt O09114, C65A/W54A).
T7 sequence (O09114 1-189 W54A/C65A): T1 sequence (O09114 1-189 C65A/H111A) with W54A, A111H
Nature of the assay: biochemical.

The target in assay [6] is T8, mouse Δ1–24-L-PGDS (lipocalin type prostaglandin D synthase) (Mus musculus, UniProt O09114, C65A).
T8 sequence (O09114 25-189 C65A): T2 sequence (O09114 25-189 T67A) with C41A, A43T
Nature of the assay: surface plasmon resonance. The assay is classed as binding.

In assay [7] the target is T3, mouse Δ1–24-L-PGDS (lipocalin type prostaglandin D synthase). The assay can be described thus: surface plasmon resonance. It is filed as binding.
Assay [8] has as its target T9, Δ^1–24-L-PGDS + T67A/S81A (Mus musculus, UniProt O09114, S81A/T67A).
T9 sequence (O09114 1-189 T67A/S81A): T1 sequence (O09114 1-189 C65A/H111A) with A65C, T67A, S81A, A111H
The assay can be described thus: biochemical.

The target in assay [9] is T10, mouse Δ1–24-L-PGDS (lipocalin type prostaglandin D synthase) (Mus musculus, UniProt O09114, W54A).
T10 sequence (O09114 25-189 W54A): T2 sequence (O09114 25-189 T67A) with W30A, A43T
The assay can be described thus: surface plasmon resonance. The assay is classed as binding.

Assay [10] concerns the target T11, mouse Δ1–24-L-PGDS (lipocalin type prostaglandin D synthase) (Mus musculus, UniProt O09114, S81A).
T11 sequence (O09114 25-189 S81A): T2 sequence (O09114 25-189 T67A) with A43T, S57A
The assay can be described thus: surface plasmon resonance. It is filed as binding.

Molecules are shown by their SMILES. Where a chain is given by its changes, count along the chain named.

For orientation: Kd means the concentration at which binding is half-saturated. As a reminder, the Ki is a dissociation constant, usually derived from enzyme kinetics or from competition with a known ligand. Higher therefore signals a looser hold on the target.

`CCCCC[C@H](O)/C=C/[C@H]1[C@@H]2CO[C@@H](C2)[C@@H]1C/C=C\CCCC(=O)O` [U-44069]: the Kd at Δ^1–24-C65A + H111A came out at 38.1 ± 2.4 µM; in assay [1] it was 12.3 ± 3 µM; in assay [3], 7.2 ± 1.6 µM; in assay [4] it was 20.6 ± 2.3 µM; in [5] it was 12.9 ± 2.4 µM; on Δ^1–24-C65A + W54A it was 49.2 ± 3.7 µM. Also, the Kd stood at 20.2 ± 2.5 µM in assay [6]; 17.5 ± 1.2 µM in assay [7]; 13.5 ± 2.3 µM in assay [8]; 20.3 ± 1.9 µM in assay [9]; 14.6 ± 2.4 µM in [10]. In addition, the Ki in [2] was 30 µM.

In the case of `CCCCC[C@H](O)/C=C/[C@@H]1[C@@H](C/C=C\CCCC(=O)O)[C@H]2CO[C@@H]1C2` [U-46619], the Kd at Δ^1–24-C65A + H111A was determined as 37.2 ± 3.5 µM; in [1] it was 26.9 ± 5.3 µM; in assay [3], 19.1 ± 2.5 µM; in [4], 20.3 ± 1.3 µM; in assay [5], 22 ± 2 µM; at Δ^1–24-C65A + W54A, 42.4 ± 3.4 µM. Moreover, the dissociation constant (Kd) in assay [6] amounted to 22.1 ± 1.5 µM; in assay [7], 22.8 ± 1.6 µM; in [8], 19.6 ± 2.3 µM; in assay [9], 44 ± 3.9 µM; in assay [10] it was 17 ± 1.7 µM. The molecule also gave a Ki in [2] of 36 µM.

(Values after paper PMC2755957 (The Journal of Biological Chemistry, 2009).)
